According to article PMC4861429, “Molecular Insights into Toluene Sensing in the TodS/TodT Signal Transduction System” (The Journal of Biological Chemistry, 2016):

Assays:
Assay in all cases: ITC
Type in all cases: binding
[1] = biological target: T1, PAS1(23–168); dimerization helix-containing PAS1 of TodS (Pseudomonas putida, UniProt A5W4E3, I114V)
T1 construct: PAS1 sensor domain with dimerization helix, residues 23-168; N-terminal His6 tag kept; E. coli C41(DE3); dimer in solution

[2] = biological target: T2, PAS1(23–168); dimerization helix-containing PAS1 of TodS (Pseudomonas putida, UniProt A5W4E3)
T2 construct: PAS1 sensor domain with dimerization helix, residues 23-168; N-terminal His6 tag kept; E. coli C41(DE3); dimer in solution
T2 sequence (A5W4E3 23-168): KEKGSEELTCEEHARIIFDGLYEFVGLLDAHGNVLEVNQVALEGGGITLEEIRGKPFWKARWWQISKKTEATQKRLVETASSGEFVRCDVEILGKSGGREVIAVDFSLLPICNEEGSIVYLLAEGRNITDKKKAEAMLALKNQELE

[3] = biological target: T3, PAS1(23–168); dimerization helix-containing PAS1 of TodS (Pseudomonas putida, UniProt A5W4E3, F46A)
T3 construct: PAS1 sensor domain with dimerization helix, residues 23-168; N-terminal His6 tag kept; E. coli C41(DE3); dimer in solution
T3 sequence (A5W4E3 23-168 F46A): as the sequence (A5W4E3 23-168) above, with F24A counted along it

[4] = biological target: T4, PAS1(23–168); dimerization helix-containing PAS1 of TodS (Pseudomonas putida, UniProt A5W4E3, V59A)
T4 construct: PAS1 sensor domain with dimerization helix, residues 23-168; N-terminal His6 tag kept; E. coli C41(DE3); dimer in solution
T4 sequence (A5W4E3 23-168 V59A): as the sequence (A5W4E3 23-168) above, with V37A counted along it

[5] = biological target: T5, PAS1(23–168); dimerization helix-containing PAS1 of TodS (Pseudomonas putida, UniProt A5W4E3, W85H)
T5 construct: PAS1 sensor domain with dimerization helix, residues 23-168; N-terminal His6 tag kept; E. coli C41(DE3); dimer in solution
T5 sequence (A5W4E3 23-168 W85H): as the sequence (A5W4E3 23-168) above, with W63H counted along it

[6] = biological target: T6, PAS1(23–168); dimerization helix-containing PAS1 of TodS (Pseudomonas putida, UniProt A5W4E3, F79Y)
T6 construct: PAS1 sensor domain with dimerization helix, residues 23-168; N-terminal His6 tag kept; E. coli C41(DE3); dimer in solution
T6 sequence (A5W4E3 23-168 F79Y): as the sequence (A5W4E3 23-168) above, with F57Y counted along it

[7] = biological target: T7, PAS1(23–168); dimerization helix-containing PAS1 of TodS (Pseudomonas putida, UniProt A5W4E3, E146A)
T7 construct: PAS1 sensor domain with dimerization helix, residues 23-168; N-terminal His6 tag kept; E. coli C41(DE3); dimer in solution
T7 sequence (A5W4E3 23-168, stated change not applied): as the sequence (A5W4E3 23-168) above

T1 sequence (A5W4E3 23-168 I114V): as the sequence (A5W4E3 23-168) above, with I92V counted along it

SMILES	Kd [1] [µM]	Kd [2] [µM]	Kd [3] [µM]	Kd [4] [µM]	Kd [5] [µM]	Kd [6] [µM]	Kd [7] [µM]
Cc1cccc(C)c1 [m-xylene]	6.1	9.5	–	–	–	–	–
Cc1ccccc1 [toluene]	8.4	8.5	95.2	14.6	10.6	71.4	9.6
